The text below walks through data of patent publication US10774051B2, “6-membered heterocyclic derivatives and pharmaceutical composition comprising the same” (Shionogi & Co., Ltd., priority 2015, dated 2020).

Structures are written as SMILES.

For one assay, the target named is human P2X7 receptor (Homo sapiens, UniProt Q99572, R270H/Y155H). The assay can be described thus: Evaluation of human P2X7 receptor inhibitory activity (Yo-Pro uptake, BzATP stimulation, FLIPR TETRA). It counts as cell-based. As to conditions: 1321N1 cells stably expressing human P2X7 receptor; BzATP stimulation, Yo-Pro uptake; read-out: IC50 (antagonistic activity for the human P2X7 receptor). The essentials:
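1321N1 cells stably expressing human P2X7 (T606C/G952A SNP variant), in HBSS buffer pH 7.4-7.5 with Yo-Pro, stimulated with BzATP; compound added 8 min after agonist. Fluorescence followed for 20 min on FLIPR; max-minus-min change gave % inhibition, IC50 by logistic fit.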
A word on the IC50: it is the concentration that inhibits the measured activity by half. Regarding `COc1cn(Cc2cc(F)c(F)c(F)c2)c(Nc2cc3sc(C)nc3cc2C)nc1=O` [Compound I-0940], the IC50 amounted to 240 nM.
`COc1cn(Cc2ccc(F)c(F)c2)c(Nc2cccc(OC(F)F)c2C)nc1=O` [Compound I-0480]: the IC50 was 4 nM.
With `COc1cn(Cc2ccc(F)c(Cl)c2)c(Oc2cc(-c3ncco3)ccc2C)cc1=O` [Compound I-0965], the concentration for half-maximal inhibition (IC50) is 440 nM.
For `COc1cn(Cc2ccc(F)c(Cl)c2)c(Nc2cccc3[nH]c(=O)ccc23)nc1=O` [Compound I-0397], the concentration for half-maximal inhibition (IC50) was determined as 67 nM.
For `Cc1cc2c(cc1Nc1nc(=O)c(F)cn1Cc1ccccc1)OCCO2` [Compound I-0366], the IC50 turned out to be 35 nM.

The same assay, now with this note: 1321N1 cells stably expressing human P2X7 receptor; BzATP stimulation, Yo-Pro uptake; read-out: IC50 (antagonistic activity for the human P2X7 receptor), class symbol.
`COC(=O)c1cccc(Nc2nc(=O)c(OC)cn2Cc2ccccc2)c1C` [Compound I-0088]: the IC50 lay within 100 to 500 nM.
Regarding `COc1cn(Cc2ccccc2)c(Nc2cc(SC(F)(F)F)ccc2C)nc1=O` [Compound I-0512], the IC50 fell in the range of 100 to 500 nM.
Same read-out and setting: then `COc1cn(Cc2ccc(F)cc2)c(Nc2cccc(Cl)c2C)nc1=O` [Compound I-0001], with less than 10 nM; and `COc1cn(Cc2cc(F)c(F)c(F)c2)c(Nc2cc(C)c(C)cc2C)nc1=O` [Compound I-0574], with less than 10 nM; and `COc1cn(Cc2ccccc2)c(Nc2cc([N+](=O)[O-])ccc2C)nc1=O` [Compound I-0155], with 500 to 1000 nM.
`COc1cn(Cc2ccc(F)c(Cl)c2)c(Nc2cc(-c3nc4ncccc4o3)ccc2C)nc1=O` [Compound I-0417]: the half-inhibitory concentration (IC50) was 100 to 500 nM.
As to `COc1cn(Cc2ccc(F)c(Cl)c2)c(NCc2cccc(Cl)c2C)nc1=O` [Compound I-0451], the half-inhibitory concentration (IC50) was in the range of 100 to 500 nM.
With `COc1cn(Cc2cc(F)cc(F)c2)c(Nc2cccc3sccc23)nc1=O` [Compound I-0441], the IC50 was less than 10 nM.
On the same count and under the same terms, then `COc1cn(Cc2ccc(F)c(Cl)c2)c(Nc2cc(C)c(F)cc2C)nc1=O` [Compound I-0507], with less than 10 nM; and `COc1cn(Cc2ccc(F)cc2)c(Nc2cccc(C(F)(F)F)c2Cl)nc1=O` [Compound I-0038], with 10 to 100 nM.
For `COc1cc(Nc2nc(=O)c(OC)cn2Cc2cc(F)cc(F)c2)c(C)cc1Cl` [Compound I-0510], the IC50 was less than 10 nM.
As for `COc1cn(Cc2ccc(F)c(Cl)c2)c(Nc2cccc(C)c2Cl)nc1=O` [Compound I-0483], the IC50 was less than 10 nM.
Still for that read-out and setting: next, `COc1cn(Cc2ccccc2)c(Nc2cccc(-n3cccc3)c2C)nc1=O` [Compound I-0091]: 100 to 500 nM.
On the same count and under the same terms, then `COc1cn(Cc2ccccc2)c(Nc2cc(C)c(C)cc2C)nc1=O` [Compound I-0357], with 500 to 1000 nM.
`CCc1ccccc1Nc1nc(=O)c(OC)cn1Cc1cc(F)cc(F)c1` [Compound I-0327]: the IC50 lay in the range of 10 to 100 nM.
Consider `COc1cc(C)c(Nc2nc(=O)c(F)cn2Cc2cccc(Cl)c2)cc1C` [Compound I-0348], for which the IC50 is less than 10 nM.
As to `COc1cc(C)c(Nc2nc(=O)c(F)cn2Cc2ccccc2)cc1C` [Compound I-0318], the IC50 was less than 10 nM.
`CCOc1cc(C)c(Nc2nc(=O)c(OC)cn2Cc2ccc(F)c(Cl)c2)cc1C` [Compound I-0231]: the concentration for half-maximal inhibition (IC50) is less than 10 nM.
In the case of `COc1cn(Cc2ccccc2)c(Nc2cccc(OC(F)F)c2Cl)nc1=O` [Compound I-0133], the 50% inhibitory concentration (IC50) lay within 100 to 500 nM.
On to `COc1cn(Cc2ccc(F)c(Cl)c2)c(Nc2ccc(C)cc2C)nc1=O` [Compound I-0376], for which the IC50 is less than 10 nM.
Regarding `COc1cn(Cc2ccccc2)c(Nc2cc(S(C)(=O)=O)ccc2C)nc1=O` [Compound I-0513], the IC50 was in the range of 100 to 500 nM.
`COc1cc(C)c(Nc2nc(=O)c(Cl)cn2Cc2ccccc2)cc1OC` [Compound I-0310]: the IC50 lay within 10 to 100 nM.
With `COc1cn(Cc2ccccc2OC(F)(F)F)c(Nc2cccc(Cl)c2C)nc1=O` [Compound I-0303], the IC50 fell in the range of 100 to 500 nM.
The same measure, in the same setting: then `COc1cc(C)c(Nc2nc(=O)c(OC)cn2Cc2cccc(F)c2)cc1OC` [Compound I-0274], with less than 10 nM; and `CCc1cc(Br)ccc1Nc1nc(=O)c(OC)cn1Cc1ccccc1` [Compound I-0101], with 10 to 100 nM; and `COc1cn(Cc2cccc(Cl)c2)c(Nc2cccc(C)c2Cl)nc1=O` [Compound I-0481], with 10 to 100 nM.
For `COc1cc(C)c(Nc2nc(=O)c(OC)cn2Cc2ccc(F)c(F)c2)cc1C` [Compound I-0283], the IC50 is less than 10 nM.
For `CCc1ccc(Cl)cc1Nc1nc(=O)c(OC)cn1Cc1ccccc1` [Compound I-0175], the IC50 was 10 to 100 nM.
On to `COc1cc(Nc2nc(=O)c(F)cn2Cc2ccc(F)c(Cl)c2)c(C)cc1Cl` [Compound I-0533], for which the IC50 is less than 10 nM.
Regarding `Cc1c(Cl)cccc1Nc1nc(=O)c(C)cn1Cc1ccccc1` [Compound I-0012], the IC50 was 10 to 100 nM.
On the same count and under the same terms, then `COc1cn(Cc2cccc(Cl)c2)c(Nc2cccc(C)c2C)nc1=O` [Compound I-0312], with 10 to 100 nM.
As for `COc1ccccc1CNc1nc(=O)c(OC)cn1Cc1ccccc1` [Compound I-0113], the half-maximal inhibitory concentration (IC50) lay in the range of 500 to 1000 nM.
For the compound `COc1cc(C)cc(Nc2nc(=O)c(OC)cn2Cc2ccc(F)c(Cl)c2)c1C` [Compound I-0477], the IC50 is less than 10 nM.
Consider `COc1cn(Cc2ccccc2)c(NCc2cccc(C(F)(F)F)c2Cl)nc1=O` [Compound I-0035], for which the 50% inhibitory concentration (IC50) fell in the range of 100 to 500 nM.
Regarding `COc1cn(Cc2ccc(F)c(F)c2)c(Nc2cc(C)c(F)cc2C)nc1=O` [Compound I-0503], the IC50 is less than 10 nM.
For the compound `COc1cn(Cc2ccccc2)c(Nc2c(Cl)cccc2Cl)nc1=O` [Compound I-0083], the IC50 was in the range of 500 to 1000 nM.

Staying with this assay, now noted: antagonistic activity for the human P2X7 receptor; read-out: IC50.
For `COc1cn(Cc2ccc(F)c(Cl)c2)c(Nc2cc(-c3ccc(C)o3)ccc2C)nc1=O` [Compound I-0659], the IC50 is 10 to 100 nM.
In the case of `CCc1ccc(OC)cc1Nc1nc(=O)c(OC)cn1Cc1cc(F)c(F)c(F)c1` [Compound I-0673], the concentration for half-maximal inhibition (IC50) was less than 10 nM.
As for `Cc1cc2c(cc1Nc1nc(=O)cnn1Cc1cc(F)c(F)c(F)c1)COC2` [Compound I-1280], the half-inhibitory concentration (IC50) was less than 10 nM.
On the same count and under the same terms, then `Cc1c(Nc2nc(=O)c(F)cn2Cc2cc(F)c(F)c(F)c2)ccc2scnc12` [Compound I-1203], with less than 10 nM.
For `COc1cn(Cc2ccc(F)c(Cl)c2)c(Nc2cc(C)c(Cl)cc2C)cc1=O` [Compound I-0949], the IC50 was 100 to 500 nM.
Take `COc1ccc(Nc2nc(=O)c(CO)nn2Cc2cc(F)c(F)c(F)c2)c(C)c1` [Compound I-1247]: the IC50 was less than 10 nM.
Regarding `CCc1ccc(Cl)cc1Nc1nc(=O)c(F)cn1Cc1cc(F)c(F)c(F)c1` [Compound I-1190], the IC50 is less than 10 nM.
With `CCOc1cc(C)c(Nc2nc(=O)c(OC)cn2Cc2cc(F)c(F)c(F)c2)cc1C` [Compound I-0624], the IC50 was less than 10 nM.
Consider `Cc1cc(Nc2nc(=O)c(F)cn2Cc2cc(F)c(F)c(F)c2)c(Cl)cc1F` [Compound I-1225], for which the IC50 is less than 10 nM.
In the case of `CCOc1cn(Cc2ccccc2)c(Nc2cc(C)c(OC)cc2C)nc1=O` [Compound I-0713], the IC50 was less than 10 nM.
The same measure, in the same setting: then `COc1nc(C)c(Nc2nc(=O)c(F)cn2Cc2ccc(F)c(F)c2)cc1C` [Compound I-1008], with less than 10 nM; and `COc1cn(Cc2cc(F)cc(Cl)c2)c(Nc2cc(Cl)c(F)cc2C)nc1=O` [Compound I-0811], with 10 to 100 nM; and `Cc1cc(C)c(Nc2nc(=O)c(F)cn2Cc2ccc(F)c(Cl)c2)cc1CO` [Compound I-1089], with less than 10 nM.
`COc1cn(Cc2ccc(F)c(F)c2)c(Nc2cc(C)cc3[nH]ccc23)nc1=O` [Compound I-0645]: the IC50 lay within 10 to 100 nM.
Take `COc1cn(Cc2cc(F)c(F)c(F)c2)c(Nc2cc(Oc3ccccn3)ccc2C)nc1=O` [Compound I-0899]: the half-maximal inhibitory concentration (IC50) is less than 10 nM.
`Cc1ccc(-c2ncco2)cc1Nc1nc(=O)c(Cl)cn1Cc1ccc(F)c(Cl)c1` [Compound I-0852]: the IC50 is less than 10 nM.
Turning to `COc1ccc(Nc2nc(=O)c(F)cn2Cc2ccc(F)c(F)c2)c(C)n1` [Compound I-1049], the IC50 fell in the range of 10 to 100 nM.
Consider `COc1cn(Cc2ccccc2)c(Nc2cc(S(C)(=O)=O)cc(C)c2C)nc1=O` [Compound I-0754], for which the concentration for half-maximal inhibition (IC50) is 10 to 100 nM.
Consider `CCOc1cc(Nc2nc(=O)c(F)cn2Cc2cc(F)c(F)c(F)c2)c(C)cc1F` [Compound I-1030], for which the IC50 is less than 10 nM.
In the case of `Cc1c(Nc2nc(=O)c(F)cn2Cc2cc(F)c(F)c(F)c2)ccc2[nH]ccc12` [Compound I-1120], the 50% inhibitory concentration (IC50) is less than 10 nM.
Consider `Cc1nc2cc(C)c(Nc3nc(=O)c(F)cn3Cc3cc(F)c(F)c(F)c3)cc2o1` [Compound I-1183], for which the half-inhibitory concentration (IC50) is less than 10 nM.
For the compound `COc1cc(C)c(Nc2nc(=O)cnn2Cc2cc(F)c(F)c(F)c2)cc1Cl` [Compound I-1278], the concentration for half-maximal inhibition (IC50) was less than 10 nM.
On to `COc1cc(C)c(Nc2nc(=O)ccn2Cc2cc(F)c(F)c(F)c2)cc1OC` [Compound I-1150], for which the IC50 fell in the range of 10 to 100 nM.
Consider `COc1cn(Cc2ccc(F)c(Cl)c2)c(Nc2cc(Cl)c(F)cc2C)nc1=O` [Compound I-0809], for which the concentration for half-maximal inhibition (IC50) lay in the range of 10 to 100 nM.
As for `COc1cn(Cc2cc(F)cc(Cl)c2)c(Nc2ccc(OC(F)F)cc2C)nc1=O` [Compound I-0613], the IC50 was 10 to 100 nM.
Turning to `CCOc1ccc(Cl)c(Nc2nc(=O)c(F)cn2Cc2cc(F)c(F)c(F)c2)c1` [Compound I-1217], the IC50 is less than 10 nM.
On to `COc1cn(Cc2cc(F)cc(Cl)c2)c(Nc2cccc3c(=O)[nH]ccc23)nc1=O` [Compound I-0651], for which the IC50 was 10 to 100 nM.
On to `COc1cn(Cc2ccc(F)c(Cl)c2)c(Nc2ccc3occc3c2C)nc1=O` [Compound I-0799], for which the 50% inhibitory concentration (IC50) was less than 10 nM.
Take `COc1cn(Cc2cc(F)cc(Cl)c2)c(Nc2cc(-c3ccc(C)o3)ccc2C)nc1=O` [Compound I-0768]: the IC50 lay in the range of 10 to 100 nM.
Turning to `COc1cn(Cc2cc(F)cc(Cl)c2)c(Nc2cc(-c3ncco3)ccc2C)nc1=O` [Compound I-0668], the half-maximal inhibitory concentration (IC50) fell in the range of 10 to 100 nM.
In the case of `COc1cn(Cc2ccccc2)c(Nc2ccc(Cl)cc2C)cc1=O` [Compound I-0950], the IC50 lay within 100 to 500 nM.
